Measured values published in ChEMBL document CHEMBL5365487, “Development of 18F-Labeled PET Tracer Candidates for Imaging of the Abelson Non-receptor Tyrosine Kinase in Parkinson's Disease” (J Med Chem, 2023).

How the values were obtained:
[1] = Ex vivo biodistribution in Hsd:ICR (CD-1) mouse assessed as blood uptake at 12.5 to 26.9 MBq, iv measured after 90 mins by gamma counter analysis; type: ADME, organism-based; conditions: dose 12.5-26.9 MBq
[2] = Ex vivo biodistribution in Hsd:ICR (CD-1) mouse assessed as brain uptake at 12.5 to 26.9 MBq, iv measured for 5 to 90 mins by gamma counter analysis; type: ADME, organism-based; conditions: dose lower 12.5 MBq, time lower 5 min, dose upper 26.9 MBq, time upper 90 min
[3] = In vivo stability in iv dosed Hsd:ICR (CD-1) mouse plasma assessed as stability measured after 90 mins by radio-HPLC analysis; type: ADME, organism-based; conditions: for Stability: in vivo, iv
[4] = Ex vivo biodistribution in Hsd:ICR (CD-1) mouse assessed as brain uptake at 12.5 to 26.9 MBq, iv measured for 5 to 90 mins in presence of imidazole [1,2-alpha]pyridine by gamma counter analysis; type: ADME, organism-based; conditions: dose lower 12.5 MBq, time lower 5 min, dose upper 26.9 MBq, time upper 90 min
[5] = In vivo stability in iv dosed Hsd:ICR (CD-1) mouse brain assessed as stability measured after 90 mins by radio-HPLC analysis; type: ADME, organism-based; conditions: read-out: Stability
[6] = In vivo stability in iv dosed Hsd:ICR (CD-1) mouse brain assessed as stability measured after 5 mins by radio-HPLC analysis; type: ADME, organism-based; conditions: read-out: Stability
[7] = Ex vivo biodistribution in Hsd:ICR (CD-1) mouse assessed as brain uptake at 12.5 to 26.9 MBq, iv measured for 5 mins by gamma counter analysis; type: ADME, organism-based; conditions: dose 12.5-26.9 MBq
[8] = In vivo stability in iv dosed Hsd:ICR (CD-1) mouse plasma assessed as stability measured after 45 mins by radio-HPLC analysis; type: ADME, organism-based; conditions: for remaining at 0.75 h: Hsd:ICR (CD-1), plasma, read-out: Stability
[9] = Biodistribution in Hsd:ICR (CD-1) mouse assessed as brain uptake at 12.5 to 26.9 MBq, iv in presence of imidazole [1,2-alpha]pyridine measured at early time points by PET imaging analysis; type: ADME, organism-based; conditions: in vivo, dose 12.5-26.9 MBq
[10] = Ex vivo biodistribution in Hsd:ICR (CD-1) mouse assessed as thigh bone uptake at 12.5 to 26.9 MBq, iv measured after 90 mins by gamma counter analysis; type: ADME, organism-based; conditions: dose 12.5-26.9 MBq
[11] = Ex vivo biodistribution in Hsd:ICR (CD-1) mouse assessed as thigh bone uptake at 12.5 to 26.9 MBq, iv measured for 5 mins by gamma counter analysis; type: ADME, organism-based; conditions: dose 12.5-26.9 MBq
[12] = In vivo stability in iv dosed Hsd:ICR (CD-1) mouse plasma assessed as stability measured after 5 mins by radio-HPLC analysis; type: ADME, organism-based; conditions: for remaining at 5 min: Hsd:ICR (CD-1), plasma, read-out: Stability
[13] = Half life in C57BL6 mouse brain at 1 mg/kg, iv single administration measured upto 24 hrs by LC-MS/MS analysis; type: ADME, organism-based
[14] = AUC in C57BL6 mouse brain assessed as free brain drug at 1 mg/kg, iv single administration measured upto 24 hrs by LC-MS/MS analysis; type: ADME, organism-based; parameters: time < 24 hrs, dose 1 mg/kg, route iv; conditions: in vivo
[15] = Initial plasma concentration in C57BL6 mouse plasma at 1 mg/kg, iv single administration measured upto 24 hrs by LC-MS/MS analysis; type: ADME, organism-based
[16] = Plasma protein binding in CD-1 ISG mouse plasma measured after 4 hrs by equilibrium dialysis based LC-MS/MS analysis; type: ADME, cell-free; conditions: read-out: PPB (converted)
[17] = Metabolic stability in human liver microsomes assessed as stability measured after 30 mins by LC-MS/MS analysis; type: ADME, Microsome; conditions: read-out: Drug metabolism
[18] = AUC (0 to last) in C57BL6 mouse brain at 1 mg/kg, iv single administration measured upto 24 hrs by LC-MS/MS analysis; type: ADME, organism-based; parameters: time < 24 hrs, dose 1 mg/kg, route iv
[19] = AUC in C57BL6 mouse brain at 1 mg/kg, iv single administration measured upto 24 hrs by LC-MS/MS analysis; type: ADME, organism-based; parameters: time < 24 hrs, dose 1 mg/kg, route iv
[20] = Ratio of total drug brain AUC to total plasma AUC in C57BL6 mouse brain at 1 mg/kg, iv single administration measured upto 24 hrs by LC-MS/MS analysis; type: ADME, organism-based
[21] = Ratio of total drug brain AUC to total plasma AUC in C57BL6 mouse brain at 0.5 mg/kg, iv single administration measured upto 24 hrs by LC-MS/MS analysis; type: ADME, organism-based
[22] = AUC (0 to last) in C57BL6 mouse brain at 0.5 mg/kg, iv single administration measured upto 24 hrs by LC-MS/MS analysis; type: ADME, organism-based; parameters: time < 24 hrs, dose 0.5 mg/kg, route iv
[23] = AUC in C57BL6 mouse brain assessed as free brain drug at 0.5 mg/kg, iv single administration measured upto 24 hrs by LC-MS/MS analysis; type: ADME, organism-based; parameters: dose 0.5 mg/kg, time < 24 hrs, route iv; conditions: in vivo
[24] = Initial plasma concentration in C57BL6 mouse plasma at 0.5 mg/kg, iv single administration measured upto 24 hrs by LC-MS/MS analysis; type: ADME, organism-based
[25] = molecular target: Receptor-interacting serine/threonine-protein kinase 2 (Homo sapiens) (UniProt O43353); assay: Inhibition of RIPK2 (unknown origin) at 1 uM by ADP-Glo kinase assay relative to control
Chain of Receptor-interacting serine/threonine-protein kinase 2 (Homo sapiens) (O43353 whole entry): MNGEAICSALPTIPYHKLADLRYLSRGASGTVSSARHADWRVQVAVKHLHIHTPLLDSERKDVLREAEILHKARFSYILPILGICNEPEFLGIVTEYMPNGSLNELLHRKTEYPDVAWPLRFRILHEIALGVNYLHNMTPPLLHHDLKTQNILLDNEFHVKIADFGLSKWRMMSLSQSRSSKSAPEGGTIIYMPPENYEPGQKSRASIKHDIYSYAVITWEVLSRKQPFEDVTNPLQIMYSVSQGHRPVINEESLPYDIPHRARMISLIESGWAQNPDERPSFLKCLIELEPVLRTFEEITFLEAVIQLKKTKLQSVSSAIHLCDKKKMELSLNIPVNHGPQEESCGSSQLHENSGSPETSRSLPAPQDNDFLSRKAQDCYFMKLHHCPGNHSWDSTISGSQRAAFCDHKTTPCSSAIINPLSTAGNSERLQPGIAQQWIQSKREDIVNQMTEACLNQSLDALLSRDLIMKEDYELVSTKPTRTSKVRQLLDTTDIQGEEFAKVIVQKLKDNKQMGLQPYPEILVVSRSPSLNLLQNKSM

[26] = molecular target: T1, Interleukin-1 receptor-associated kinase 3 (Homo sapiens) (UniProt Q9Y616); assay: Inhibition of IRAK3 (unknown origin) at 1 uM by ADP-Glo kinase assay relative to control
T1 sequence (whole entry): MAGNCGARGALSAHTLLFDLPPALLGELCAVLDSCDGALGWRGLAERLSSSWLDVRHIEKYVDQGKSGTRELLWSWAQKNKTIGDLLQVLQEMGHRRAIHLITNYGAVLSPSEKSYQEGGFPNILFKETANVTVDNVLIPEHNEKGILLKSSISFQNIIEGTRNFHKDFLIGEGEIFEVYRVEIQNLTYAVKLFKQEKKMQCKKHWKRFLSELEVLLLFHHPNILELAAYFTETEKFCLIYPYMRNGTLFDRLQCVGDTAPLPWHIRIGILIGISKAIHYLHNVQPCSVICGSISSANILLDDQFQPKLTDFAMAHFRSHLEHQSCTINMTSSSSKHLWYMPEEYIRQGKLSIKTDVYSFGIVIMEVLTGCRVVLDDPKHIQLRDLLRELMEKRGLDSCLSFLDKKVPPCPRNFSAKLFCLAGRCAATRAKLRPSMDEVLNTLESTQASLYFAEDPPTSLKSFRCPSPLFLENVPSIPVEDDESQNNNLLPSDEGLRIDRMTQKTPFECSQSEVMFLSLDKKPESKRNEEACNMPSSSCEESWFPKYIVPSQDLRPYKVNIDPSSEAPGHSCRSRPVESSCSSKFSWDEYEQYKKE

[27] = Ratio of free drug brain AUC to free plasma AUC in C57BL6 mouse brain at 0.5 mg/kg, iv single administration measured upto 24 hrs by LC-MS/MS analysis; type: ADME, organism-based; conditions: read-out: K(p,uu,brain)
[28] = molecular target: Tyrosine-protein kinase Lck (Homo sapiens) (UniProt P06239); assay: Inhibition of LCK (unknown origin) at 1 uM by ADP-Glo kinase assay relative to control
Chain of Tyrosine-protein kinase Lck (Homo sapiens) (P06239 2-509 limits assumed): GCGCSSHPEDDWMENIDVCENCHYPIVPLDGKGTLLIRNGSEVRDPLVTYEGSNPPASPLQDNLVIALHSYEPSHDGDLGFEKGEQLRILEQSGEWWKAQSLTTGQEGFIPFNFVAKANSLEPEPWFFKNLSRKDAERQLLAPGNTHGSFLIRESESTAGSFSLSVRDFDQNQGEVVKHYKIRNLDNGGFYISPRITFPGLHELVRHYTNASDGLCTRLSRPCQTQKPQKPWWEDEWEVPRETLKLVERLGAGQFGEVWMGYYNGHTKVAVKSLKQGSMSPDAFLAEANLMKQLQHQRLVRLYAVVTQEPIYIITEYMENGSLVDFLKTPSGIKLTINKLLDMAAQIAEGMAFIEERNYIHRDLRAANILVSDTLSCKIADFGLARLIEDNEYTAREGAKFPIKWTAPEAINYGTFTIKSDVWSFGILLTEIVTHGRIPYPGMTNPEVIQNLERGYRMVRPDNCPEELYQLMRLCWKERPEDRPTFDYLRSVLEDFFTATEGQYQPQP

[29] = molecular target: Leucine-rich repeat serine/threonine-protein kinase 2 (Homo sapiens) (UniProt Q5S007); assay: Inhibition of LRRK2 (unknown origin) at 1 uM by ADP-Glo kinase assay relative to control
Chain of Leucine-rich repeat serine/threonine-protein kinase 2 (Homo sapiens) (Q5S007 whole entry): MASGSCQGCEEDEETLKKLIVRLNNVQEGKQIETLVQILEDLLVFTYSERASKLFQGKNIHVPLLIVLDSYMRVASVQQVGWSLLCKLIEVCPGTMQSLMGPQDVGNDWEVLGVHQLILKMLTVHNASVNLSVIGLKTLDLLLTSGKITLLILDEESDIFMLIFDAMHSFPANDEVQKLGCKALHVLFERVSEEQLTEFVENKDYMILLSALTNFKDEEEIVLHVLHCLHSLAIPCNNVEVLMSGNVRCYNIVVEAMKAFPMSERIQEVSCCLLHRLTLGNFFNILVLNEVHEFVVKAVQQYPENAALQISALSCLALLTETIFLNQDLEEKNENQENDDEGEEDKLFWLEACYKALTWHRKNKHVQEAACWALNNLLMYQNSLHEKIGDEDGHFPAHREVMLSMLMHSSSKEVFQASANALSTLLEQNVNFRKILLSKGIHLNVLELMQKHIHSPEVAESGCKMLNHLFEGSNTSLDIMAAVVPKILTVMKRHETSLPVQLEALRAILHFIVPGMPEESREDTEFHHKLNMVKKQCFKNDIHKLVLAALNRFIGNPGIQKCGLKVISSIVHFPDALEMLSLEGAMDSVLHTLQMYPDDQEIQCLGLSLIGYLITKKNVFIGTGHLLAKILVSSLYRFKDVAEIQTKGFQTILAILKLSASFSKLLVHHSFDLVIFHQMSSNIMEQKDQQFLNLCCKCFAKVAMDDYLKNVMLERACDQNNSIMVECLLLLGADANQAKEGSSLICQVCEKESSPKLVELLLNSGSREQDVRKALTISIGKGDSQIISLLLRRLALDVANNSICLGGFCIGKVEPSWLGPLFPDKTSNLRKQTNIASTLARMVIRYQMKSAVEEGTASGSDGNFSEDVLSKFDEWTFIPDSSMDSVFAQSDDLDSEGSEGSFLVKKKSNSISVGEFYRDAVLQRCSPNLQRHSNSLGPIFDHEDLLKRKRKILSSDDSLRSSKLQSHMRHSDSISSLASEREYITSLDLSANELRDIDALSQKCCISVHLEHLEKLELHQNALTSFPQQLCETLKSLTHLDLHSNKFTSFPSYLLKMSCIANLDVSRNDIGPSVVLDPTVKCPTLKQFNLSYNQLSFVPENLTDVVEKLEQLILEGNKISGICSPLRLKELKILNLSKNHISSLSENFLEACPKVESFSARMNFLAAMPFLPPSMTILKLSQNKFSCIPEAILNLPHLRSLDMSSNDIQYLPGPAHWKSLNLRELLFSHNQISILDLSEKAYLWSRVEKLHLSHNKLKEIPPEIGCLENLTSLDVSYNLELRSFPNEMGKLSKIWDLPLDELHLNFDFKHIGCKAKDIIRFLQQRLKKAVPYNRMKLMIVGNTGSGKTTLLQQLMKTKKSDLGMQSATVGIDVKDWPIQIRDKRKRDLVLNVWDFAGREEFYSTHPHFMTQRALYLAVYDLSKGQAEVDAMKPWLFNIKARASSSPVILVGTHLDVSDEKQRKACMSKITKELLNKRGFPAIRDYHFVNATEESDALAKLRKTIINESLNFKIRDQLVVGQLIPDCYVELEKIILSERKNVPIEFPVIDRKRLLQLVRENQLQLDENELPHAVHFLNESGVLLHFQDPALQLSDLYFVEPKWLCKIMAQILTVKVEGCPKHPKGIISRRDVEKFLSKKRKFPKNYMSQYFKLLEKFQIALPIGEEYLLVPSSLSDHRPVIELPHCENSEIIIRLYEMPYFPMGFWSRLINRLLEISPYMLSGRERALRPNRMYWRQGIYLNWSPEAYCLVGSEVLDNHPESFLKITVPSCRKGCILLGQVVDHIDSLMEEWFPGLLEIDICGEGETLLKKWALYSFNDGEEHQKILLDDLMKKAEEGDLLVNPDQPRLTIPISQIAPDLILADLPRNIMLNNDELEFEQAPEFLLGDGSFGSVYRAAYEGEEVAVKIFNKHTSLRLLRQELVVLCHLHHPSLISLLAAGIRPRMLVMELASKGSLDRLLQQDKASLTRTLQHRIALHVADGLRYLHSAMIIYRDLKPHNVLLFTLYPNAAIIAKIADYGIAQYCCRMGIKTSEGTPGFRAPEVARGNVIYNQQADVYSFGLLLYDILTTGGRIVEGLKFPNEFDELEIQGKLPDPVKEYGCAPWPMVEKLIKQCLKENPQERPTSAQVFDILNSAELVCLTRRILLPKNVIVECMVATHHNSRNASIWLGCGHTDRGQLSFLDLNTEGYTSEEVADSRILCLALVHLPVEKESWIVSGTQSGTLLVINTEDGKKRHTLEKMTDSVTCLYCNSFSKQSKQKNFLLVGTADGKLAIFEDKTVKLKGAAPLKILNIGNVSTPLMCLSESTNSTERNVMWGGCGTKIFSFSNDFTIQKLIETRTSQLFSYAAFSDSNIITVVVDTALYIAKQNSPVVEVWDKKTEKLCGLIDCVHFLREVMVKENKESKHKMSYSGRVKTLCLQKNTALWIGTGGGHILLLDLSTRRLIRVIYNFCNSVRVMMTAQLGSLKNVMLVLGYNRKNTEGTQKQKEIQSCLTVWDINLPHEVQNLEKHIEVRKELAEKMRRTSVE

[30] = molecular target: Interleukin-1 receptor-associated kinase 1 (Homo sapiens) (UniProt P51617); assay: Inhibition of IRAK1 (unknown origin) at 1 uM by ADP-Glo kinase assay relative to control
Chain of Interleukin-1 receptor-associated kinase 1 (Homo sapiens) (P51617 whole entry, looked up): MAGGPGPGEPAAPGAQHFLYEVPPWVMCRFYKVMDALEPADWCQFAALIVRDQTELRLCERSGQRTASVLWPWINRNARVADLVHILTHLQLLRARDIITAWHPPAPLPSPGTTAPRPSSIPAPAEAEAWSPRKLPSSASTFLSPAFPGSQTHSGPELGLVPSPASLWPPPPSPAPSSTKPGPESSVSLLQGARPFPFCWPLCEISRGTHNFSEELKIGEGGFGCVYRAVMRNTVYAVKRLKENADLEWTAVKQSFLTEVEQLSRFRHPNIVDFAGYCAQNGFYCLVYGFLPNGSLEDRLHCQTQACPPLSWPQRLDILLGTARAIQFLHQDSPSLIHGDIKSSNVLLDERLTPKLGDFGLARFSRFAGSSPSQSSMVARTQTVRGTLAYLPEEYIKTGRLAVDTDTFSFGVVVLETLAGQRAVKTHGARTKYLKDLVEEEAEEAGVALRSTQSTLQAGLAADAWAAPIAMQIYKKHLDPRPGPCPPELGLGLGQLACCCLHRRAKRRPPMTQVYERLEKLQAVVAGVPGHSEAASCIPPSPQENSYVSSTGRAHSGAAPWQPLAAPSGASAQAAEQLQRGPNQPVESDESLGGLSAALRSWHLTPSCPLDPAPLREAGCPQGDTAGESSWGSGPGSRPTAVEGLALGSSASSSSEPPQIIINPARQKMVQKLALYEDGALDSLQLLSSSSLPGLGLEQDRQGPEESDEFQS

[31] = AUC in C57BL6 mouse brain at 0.5 mg/kg, iv single administration measured upto 24 hrs by LC-MS/MS analysis; type: ADME, organism-based; parameters: dose 0.5 mg/kg, time < 24 hrs, route iv
[32] = Half life in C57BL6 mouse brain at 0.5 mg/kg, iv single administration measured upto 24 hrs by LC-MS/MS analysis; type: ADME, organism-based
[33] = In vivo stability in iv dosed Hsd:ICR (CD-1) mouse brain assessed as stability measured after 5 to 90 mins by radio-HPLC analysis; type: ADME, organism-based; conditions: time 5-90 min

Row | SMILES | Drug uptake [1] [% ID/g] | Drug uptake [2] | Stability [3] | Drug uptake [4] | remaining at […] [5] [%] | remaining at 5 min [6] [%] | Drug uptake [7] [% ID/g] | remaining at 0.75 h [8] [%] | remaining at 5 min [12] [%] | half-life [13] [min] | AUC [14] [ng·h/mL] | C0 at 24 h [15] [ng/mL] | fraction unbound at 4 h [16] | remaining at 0.5 h [17] [%] | AUC(0-t) at 24 h [18] [ng·h/mL] | AUC at 24 h [19] [ng·h/mL] | Kp at 24 h [20] | other results
1 | O=C(Nc1cn2cc(-c3ccccc3CC[18F])ccc2n1)[C@@H]1C[C@@H]1F | 0.3 | Active | Unstable | Active | 8.5 | 93 | 3.1 | 13 | 72 |  |  |  |  |  |  |  |  | Drug uptake [9]: Active; Drug uptake [10]: 2.7 % ID/g; Drug uptake [11]: 1.6 % ID/g
2 | O=C(Nc1cn2cc(-c3cccc(F)c3OCCF)ccc2n1)[C@@H]1C[C@@H]1F |  |  |  |  |  |  |  |  |  | 30 | 4 | 536 | 0.0692 | < 30 | 536 | 112 | 0.21 | 
3 | Cc1cc(F)ncc1-c1ccc2nc(NC(=O)[C@@H]3C[C@@H]3F)sc2c1 |  |  |  |  |  |  |  |  |  |  |  |  | 0.0192 | < 30 |  |  |  | Kp at 24 h [21]: 0.49; AUC(0-t) at 24 h [22]: 3380 ng·h/mL; AUC [23]: 10 ng·h/mL; C0 at 24 h [24]: 1580 ng/mL; inhibition [25]: > 80%; inhibition [26]: > 80%; Kp uu at 24 h [27]: 0.15; inhibition [28]: > 80%; inhibition [29]: > 80%; inhibition [30]: > 80%; AUC at 24 h [31]: 1670 ng·h/mL; half-life [32]: 540 min
4 | O=C(Nc1cn2cc(-c3ccccc3CCF)ccc2n1)[C@@H]1C[C@@H]1F |  |  |  |  |  |  |  |  |  | 12 | 5 | 597 | 0.0734 | < 30 | 597 | 182 | 0.31 | 
5 | Cc1cc([18F])ncc1-c1ccc2nc(NC(=O)[C@@H]3C[C@@H]3F)sc2c1 | 1.2 | Active |  | Active |  |  | 4.2 |  |  |  |  |  |  |  |  |  |  | remaining at […] ([3]; Hsd:ICR (CD-1), plasma, read-out: Stability): 91%; Stability [33]: 99.42%; Stability ([8]; in vivo, iv, 0.75 h): Stable; Stability ([12]; in vivo, iv, 5 min): Stable
6 | O=C(Nc1cn2cc(-c3cccc(F)c3OCC[18F])ccc2n1)[C@@H]1C[C@@H]1F | 0.2 | Active | Unstable | Active | 33 | 88 | 1.1 | 18 | 64 |  |  |  |  |  |  |  |  | 
